Reference: US20210253575A1, “PYRROLIDINE AMINE COMPOUNDS FOR THE TREATMENT OF AUTOIMMUNE DISEASE” (Hoffmann-La Roche Inc., priority 2018, published 2021)

Target: T1, human TLR7 (Homo sapiens, UniProt Q9NYK1)
T1 sequence (Q9NYK1 27-1049): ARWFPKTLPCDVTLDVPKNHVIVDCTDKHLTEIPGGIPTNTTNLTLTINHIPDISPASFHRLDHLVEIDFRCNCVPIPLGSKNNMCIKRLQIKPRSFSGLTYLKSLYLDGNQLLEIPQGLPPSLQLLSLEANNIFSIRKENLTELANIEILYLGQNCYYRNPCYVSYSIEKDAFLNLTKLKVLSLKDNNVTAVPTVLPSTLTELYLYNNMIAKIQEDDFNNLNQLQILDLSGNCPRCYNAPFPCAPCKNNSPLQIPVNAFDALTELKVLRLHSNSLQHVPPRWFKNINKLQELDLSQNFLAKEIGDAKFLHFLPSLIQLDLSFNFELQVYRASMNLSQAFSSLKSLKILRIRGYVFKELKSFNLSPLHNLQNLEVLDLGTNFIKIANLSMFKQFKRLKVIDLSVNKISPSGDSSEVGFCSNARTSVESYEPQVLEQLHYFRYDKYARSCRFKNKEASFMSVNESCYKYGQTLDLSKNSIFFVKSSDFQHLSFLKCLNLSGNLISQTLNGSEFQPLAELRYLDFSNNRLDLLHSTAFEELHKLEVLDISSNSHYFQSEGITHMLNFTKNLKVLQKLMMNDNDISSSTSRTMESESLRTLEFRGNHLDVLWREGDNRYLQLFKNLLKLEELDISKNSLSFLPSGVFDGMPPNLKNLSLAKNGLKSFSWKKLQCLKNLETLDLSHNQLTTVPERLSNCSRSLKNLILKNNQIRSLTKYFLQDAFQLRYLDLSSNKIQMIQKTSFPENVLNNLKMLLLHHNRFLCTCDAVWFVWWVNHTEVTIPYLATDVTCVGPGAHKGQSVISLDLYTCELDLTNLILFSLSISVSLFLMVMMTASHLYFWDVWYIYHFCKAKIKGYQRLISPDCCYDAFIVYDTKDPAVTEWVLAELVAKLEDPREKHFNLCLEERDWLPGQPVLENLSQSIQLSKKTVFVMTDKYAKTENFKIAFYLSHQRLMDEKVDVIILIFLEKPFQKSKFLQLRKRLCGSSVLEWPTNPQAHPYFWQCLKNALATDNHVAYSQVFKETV
Test: HEK293-Blue-hTLR-7 cells assay (SEAP reporter, R848 stimulation)
Assay type: cell-based
Details: HEK293-Blue-hTLR7 cells, R848 ligand, 20 hrs incubation
Description: The following tests were carried out in order to determine the activity of the compounds of formula (I) in HEK293-Blue-hTLR-7/8/9 cells assay.
HEK293-Blue-hTLR-7 Cells Assay:
A stable HEK293-Blue-hTLR-7 cell line was purchased from InvivoGen (Cat. #: hkb-htlr7, San Diego, Calif., USA). These cells were originally designed for studying the stimulation of human TLR7 by monitoring the activation of NF-κB. A SEAP (secreted embryonic alkaline phosphatase) reporter gene was placed under the control of the IFN-β minimal promoter fused to five NF-κB and AP-1-binding sites. The SEAP was induced by activating NF-κB and AP-1 via stimulating HEK-Blue hTLR7 cells with TLR7 ligands. Therefore the reporter expression was declined by TLR7 antagonist under the stimulation of a ligand, such as R848 (Resiquimod), for incubation of 20 hrs. The cell culture supernatant SEAP reporter activity was determined using QUANTI-Blue™ kit (Cat. #: rep-qb1, Invivogen, San Diego, Ca, USA) at a wavelength of 640 nm, a detection medium that turns purple or blue in the presence of alkaline phosphatase.
HEK293-Blue-hTLR7 cells were incubated at a density of 250,000-450,000 cells/mL in a volume of 170 μL in a 96-well plate in Dulbecco's Modified Eagle's medium (DMEM) containing 4.5 g/L glucose, 50 U/mL penicillin, […], […], 2 mM L-glutamine, 10% (v/v) heat-inactivated fetal bovine serum with addition of 20 μL test compound in a serial dilution in the presence of final DMSO at 1% and 10 μL of 20 uM R848 in above DMEM, perform incubation under 37° C. in a CO2 incubator for 20 hrs. Then 20 μL of the supernatant from each well was incubated with 180 μL Quanti-blue substrate solution at 37° C. for 2 hrs and the absorbance was read at 620-655 nm using a spectrophotometer. The signalling pathway that TLR7 activation leads to downstream NF-κB activation has been widely accepted, and therefore similar reporter assay was modified for evaluating TLR7 antagonist.

SMILES	IC50 [nM]
FC(F)(F)c1ccc(N2CC(CN3CCC4(CCNCC4)CC3)C3(CC3)C2)c2nccnc12 (stereo not drawn) [Example 31, 3-[[5-[8-(Trifluoromethyl)quinoxalin-5-yl]-5-azaspiro[2.4]heptan-7-yl]methyl]-3,9-diazaspiro[5.5]undecane]	385
C[C@H]1CN(c2ccc(C#N)c3nccnc23)C[C@@H]1CN1CCC2(CCNCC2)CC1 [Example 17, 8-[(3S,4R)-3-(3,9-diazaspiro[5.5]undecan-3-ylmethyl)-4-methyl-pyrrolidin-1-yl]quinoxaline-5-carbonitrile]	128
N#Cc1ccc(N2C[C@H](CN3CC4(CCNCC4)C3)[C@@H](C(F)(F)F)C2)c2nccnc12 [Example 48, 8-[(3S,4R)-3-(2,7-diazaspiro[3.5]nonan-2-ylmethyl)-4-(trifluoromethyl)pyrrolidin-1-yl]quinoxaline-5-carbonitrile]	51
CNCC1CCN(C[C@H]2CN(c3ccc(C#N)c4nccnc34)C[C@@H]2C(F)(F)F)CC1 [Example 81, 8-[(3S,4R)-3-[[4-(methylaminomethyl)-1-piperidyl]methyl]-4-(trifluoromethyl)pyrrolidin-1-yl]quinoxaline-5-carbonitrile]	32
N#Cc1ccc(N2C[C@H](CN3CCCC(F)(CN)C3)[C@@H](C(F)(F)F)C2)c2nccnc12 (stereo partly drawn) [Example 78, 8-[(3S,4R)-3-[[3-(aminomethyl)-3-fluoro-1-piperidyl]methyl]-4-(trifluoromethyl)pyrrolidin-1-yl]quinoxaline-5-carbonitrile]	32
N#Cc1ccc(N2C[C@H](CN3CCC4(CCNC4)C3)[C@@H](C(F)(F)F)C2)c2cccnc12 (stereo partly drawn) [Example 9, 5-[(3S,4R)-3-(2,7-diazaspiro[4.4]nonan-2-ylmethyl)-4-(trifluoromethyl)pyrrolidin-1-yl]quinoline-8-carbonitrile]	61
N#Cc1ccc(N2C[C@H](CN3CCNCC3)[C@@H](C(F)(F)F)C2)c2nccnc12 [Example 59, 8-[(3S,4R)-3-(Piperazin-1-ylmethyl)-4-(trifluoromethyl)pyrrolidin-1-yl]quinoxaline-5-carbonitrile]	18
N#Cc1ccc(N2CC(CN3CCC4(CCCNC4)CC3)C3(CC3)C2)c2nccnc12 (stereo not drawn) [Example 13, 8-[7-(2,9-Diazaspiro[5.5]undecan-9-ylmethyl)-5-azaspiro[2.4]heptan-5-yl]quinoxaline-5-carbonitrile]	102
C[C@H]1CN(c2ccc(C#N)c3ncccc23)C[C@@H]1CN1CCC2(CCNCC2)CC1 [Example 23, 5-[(3S,4R)-3-(3,9-diazaspiro[5.5]undecan-3-ylmethyl)-4-methyl-pyrrolidin-1-yl]quinoline-8-carbonitrile]	251
N#Cc1ccc(N2C[C@H](CN3CCC(N4CCCCC4)CC3)[C@@H](C(F)(F)F)C2)c2nccnc12 [Example 61, 8-[(3S,4R)-3-[[4-(1-Piperidyl)-1-piperidyl]methyl]-4-(trifluoromethyl)pyrrolidin-1-yl]quinoxaline-5-carbonitrile]	22
C[C@@H]1CN(c2ccc(C(F)(F)F)c3nccnc23)C[C@H]1CNC1CCCNCC1 (stereo partly drawn) [Example 40]	746
FC(F)(F)c1ccc(N2C[C@@H](CN3CCC4(CCNC4)C3)[C@H](C(F)(F)F)C2)c2nccnc12 (relative stereo) [Example 19, 5-[Trans-3-(2,7-diazaspiro[4.4]nonan-2-ylmethyl)-4-(trifluoromethyl)pyrrolidin-1-yl]-8-(trifluoromethyl)quinoxaline]	142
N#Cc1ccc(N2C[C@H](CN3CC4CNCC4C3)[C@@H](C(F)(F)F)C2)c2nccnc12 (stereo partly drawn) [Example 76, 8-[(3S,4R)-3-(2,3,3a,4,6,6a-hexahydro-1H-pyrrolo[3,4-c]pyrrol-5-ylmethyl)-4-(trifluoromethyl)pyrrolidin-1-yl]quinoxaline-5-carbonitrile]	21
N#Cc1ccc(N2C[C@H](CN3CCC(CCN)CC3)[C@@H](C(F)(F)F)C2)c2nccnc12 [Example 79, 8-[(3S,4R)-3-[[4-(2-aminoethyl)-1-piperidyl]methyl]-4-(trifluoromethyl)pyrrolidin-1-yl]quinoxaline-5-carbonitrile]	37
N#Cc1ccc(N2CC(CN3C4CCC3CC(N)C4)C3(CC3)C2)c2nccnc12 (stereo not drawn) [Example 25, 8-[7-[(3-Amino-8-azabicyclo[3.2.1]octan-8-yl)methyl]-5-azaspiro[2.4]heptan-5-yl]quinoxaline-5-carbonitrile]	311
C[C@H]1CN(c2ccc(C#N)c3nccnc23)C[C@@H]1CN1CCC2(CCNC2)C1 (stereo partly drawn) [Example 30, 8-[(3S,4R)-3-(2,7-diazaspiro[4.4]nonan-2-ylmethyl)-4-methyl-pyrrolidin-1-yl]quinoxaline-5-carbonitrile]	382
C[C@@H]1CN(c2ccc(C(F)(F)F)c3nccnc23)C[C@H]1CN1CCC2(CCNCC2)CC1 (relative stereo) [Example 21, 3-[[Trans-4-methyl-1-[8-(trifluoromethyl)quinoxalin-5-yl]pyrrolidin-3-yl]methyl]-3,9-diazaspiro[5.5]undecane]	189
FC(F)(F)c1ccc(N2CC(CN3C[C@H]4CNC[C@H]4C3)C3(CC3)C2)c2nccnc12 (stereo partly drawn) [Example 41, 5-[7-[[(3aR,6aS)-2,3,3a,4,6,6a-hexahydro-H-pyrrolo[3,4-c]pyrrol-5-yl]methyl]-5-azaspiro[2.4]heptan-5-yl]-8-(trifluoromethyl)quinoxaline]	821
N#Cc1ccc(N2CC(CN3CCOC4(CCNCC4)C3)C3(CC3)C2)c2nccnc12 (stereo not drawn) [Example 67, 8-[7-(1-Oxa-4,9-diazaspiro[5.5]undecan-4-ylmethyl)-5-azaspiro[2.4]heptan-5-yl]quinoxaline-5-carbonitrile]	131
N#Cc1ccc(N2C[C@H](CN3CCC4(CCNCC4)C3)[C@@H](C(F)(F)F)C2)c2nccnc12 [Example 46, 8-[(3S,4R)-3-(2,8-diazaspiro[4.5]decan-2-ylmethyl)-4-(trifluoromethyl)pyrrolidin-1-yl]quinoxaline-5-carbonitrile]	93
N#Cc1ccc(N2C[C@H](CN3CCC(N4CCCCC4)CC3)[C@@H](C(F)(F)F)C2)c2cccnc12 [Example 10, 5-[(3S,4R)-3-[[4-(1-piperidyl)-1-piperidyl]methyl]-4-(trifluoromethyl)pyrrolidin-1-yl]quinoline-8-carbonitrile]	69
N#Cc1ccc(N2C[C@H](CN3CCCC4(CCNCC4)C3)[C@@H](C(F)(F)F)C2)c2cccnc12 [Example 57, 5-[(3S,4R)-3-(2,9-Diazaspiro[5.5]undecan-2-ylmethyl)-4-(trifluoromethyl)pyrrolidin-1-yl]quinoline-8-carbonitrile]	73
N#Cc1ccc(N2CC(CN3CCC4(CCCCN4)CC3)C3(CC3)C2)c2nccnc12 (stereo not drawn) [Example 65, 8-[7-(1,9-Diazaspiro[5.5]undecan-9-ylmethyl)-5-azaspiro[2.4]heptan-5-yl]quinoxaline-5-carbonitrile]	108
N#Cc1ccc(N2C[C@@H](CN3CCC4(CCNCC4)CC3)[C@H](C(F)F)C2)c2cccnc12 (relative stereo) [Example 27, 5-[Trans-3-(3,9-diazaspiro[5.5]undecan-3-ylmethyl)-4-(difluoromethyl)pyrrolidin-1-yl]quinoline-8-carbonitrile]	354
